Assay results: US11780826B2 (Amgen Inc., priority 2017, dated 2023)

Test system: Bovine cardiac myofibrils
Assay: In vitro model of dose-dependent myofibril ATPase modulation (AC1.4, pyruvate kinase/lactate dehydrogenase-coupled ATPase assay at pCa25)
Format: biochemical
Details: concentration at which ATPase activity was 1.4-fold higher than the bottom of the dose curve, mean of a minimum of two independent tests
In short: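 Compound dilutions were premixed with myofibrils, coupling enzymes, EGTA and CaCl2, then the reaction was started with an equal volume carrying ATP (final 1 mM), NADH and PEP. ATP turnover was followed at 340 nm, and dose responses were fit to a four-parameter equation.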

SMILES | AC1.4
N#CC1CN(S(=O)(=O)N2CCN[C@H](C(=O)N3CCC[C@@H]3C(=O)NCc3ccc(C(F)(F)F)cc3)C2)C1 [Example 239, 1-(((2S)-4-((3-cyano-1-azetidinyl)sulfonyl)-2-piperazinyl)carbonyl)-N-(4-(trifluoromethyl)benzyl)-D-prolinamide] | 0.5676 µM
NS(=O)(=O)c1cccc(C(=O)N2CCCC[C@@H]2C(=O)N[C@@H](c2cc(F)c(Cl)cc2F)C2CC2)c1 [Example 194, (2R)-N-((R)-(4-chloro-2,5-difluorophenyl)(cyclopropyl)methyl)-1-(3-sulfamoylbenzoyl)-2-piperidinecarboxamide] | 0.385 µM
N#CC1CN(S(=O)(=O)N2C[C@H]3C[C@@H]2[C@H](C(=O)N2CCC[C@@H]2C(=O)NCc2ccc(C(F)(F)F)cc2)C3)C1 [Example 172, 1-(((1R,4R,6R)-2-((3-cyano-1-azetidinyl)sulfonyl)-2-azabicyclo[2.2.1]hept-6-yl)carbonyl)-N-(4-(trifluoromethyl)benzyl)-D-prolinamide] | 0.2959 µM
O=C(N[C@@H](c1cc(F)c(C(F)(F)F)cc1F)C1CC1)[C@H]1C[C@H]2C[C@H]2N1C(=O)c1cccc(C(F)(F)F)c1 [Example 115, (1R,3R,5R)-N-((R)-cyclopropyl(2,5-difluoro-4-(trifluoromethyl)phenyl)methyl)-2-(3-(trifluoromethyl)benzoyl)-2-azabicyclo[3.1.0]hexane-3-carboxamide] | 0.1774 µM
CS(=O)(=O)c1ccc(NC2CC2)c(C(=O)N2CCC[C@@H]2C(=O)N[C@@H](c2ccc(C(F)(F)F)cc2F)C2CC2)c1 [Example 26, 1-(2-(cyclopropylamino)-5-(methylsulfonyl)benzoyl)-N-((R)-cyclopropyl(2-fluoro-4-(trifluoromethyl)phenyl)methyl)-D-prolinamide] | 0.0296 µM
CS(=O)(=O)c1cccc(C(=O)N2CSC[C@@H]2C(=O)N[C@@H](c2ccc(C(F)(F)F)cc2F)C2CC2)c1 [Example 129, (4S)-N-((R)-cyclopropyl(2-fluoro-4-(trifluoromethyl)phenyl)methyl)-3-(3-(methylsulfonyl)benzoyl)-1,3-thiazolidine-4-carboxamide] | 0.2119 µM
N#CC1CN(S(=O)(=O)N2CCC[C@H](C(=O)N3CCCC[C@@H]3C(=O)NCc3ccc(C(F)(F)F)cc3)C2)C1 [Example 65, (2R)-1-(((3S)-1-((3-cyano-1-azetidinyl)sulfonyl)-3-piperidinyl)carbonyl)-N-(4-(trifluoromethyl)benzyl)-2-piperidinecarboxamide] | 0.0748 µM
CC(NC(=O)[C@@H](C)N(C)C(=O)c1cccc(S(=O)(=O)N2CC(C#N)C2)c1)c1ccc(Cl)cc1 (stereo partly drawn) [Example 298, N-((2R)-1-((1-(4-chlorophenyl)ethyl)amino)-1-oxopropan-2-yl)-3-((3-cyanoazetidin-1-yl)sulfonyl)-N-methylbenzamide] | 0.7905 µM
N#CC1CN(S(=O)(=O)c2cccc(C(=O)N3C[C@H]4C[C@H]4[C@@H]3C(=O)NCc3ccc(C(F)(F)F)cc3)c2)C1 [Example 5] | 0.01655 µM
CS(=O)(=O)c1ccc(NC2CCC2)c(C(=O)N2[C@@H](C(=O)N[C@@H](c3ccc(C(F)(F)F)cc3F)C3CC3)C[C@H]3C[C@H]32)c1 [Example 40, (1R,3R,5R)-2-(2-(cyclobutylamino)-5-(methylsulfonyl)benzoyl)-N-((R)-cyclopropyl(2-fluoro-4-(trifluoromethyl)phenyl)methyl)-2-azabicyclo[3.1.0]hexane-3-carboxamide] | 0.0398 µM
CS(=O)(=O)c1ccnc(C(=O)N2CCCC[C@@H]2C(=O)N[C@@H](c2cc(F)c(Cl)cc2F)C2CC2)c1 [Example 159, (2R)-N-((R)-(4-chloro-2,5-difluorophenyl)(cyclopropyl)methyl)-1-((4-(methylsulfonyl)-2-pyridinyl)carbonyl)-2-piperidinecarboxamide] | 0.2735 µM
N#CC1CN(S(=O)(=O)c2cccc(C(=O)N3CCC[C@@H]3C(=O)N[C@H](CO)c3ccc(Cl)cc3)c2)C1 [Example 57, N-((1S)-1-(4-chlorophenyl)-2-hydroxyethyl)-1-(3-((3-cyano-1-azetidinyl)sulfonyl)benzoyl)-D-prolinamide] | 0.06485 µM
C[C@@H](NC(=O)[C@H]1CCCN1C(=O)[C@H]1CCCN(S(=O)(=O)N2CC(C#N)C2)C1)c1ccc(C(F)(F)F)cc1 [Example 84, 1-(((3S)-1-((3-cyano-1-azetidinyl)sulfonyl)-3-piperidinyl)carbonyl)-N-((1R)-1-(4-(trifluoromethyl)phenyl)ethyl)-D-prolinamide] | 0.1147 µM
N#CC1CN(S(=O)(=O)N2CCC[C@H](C(=O)N3CCC[C@@H]3C(=O)NCc3ccc(Cl)cc3F)C2)C1 [Example 70, N-(4-chloro-2-fluorobenzyl)-1-(((3S)-1-((3-cyano-1-azetidinyl)sulfonyl)-3-piperidinyl)carbonyl)-D-prolinamide] | 0.08855 µM
C[C@@H](NC(=O)[C@H]1CCCN1C(=O)[C@@H]1CN(S(=O)(=O)N2CC(C#N)C2)CCN1)c1ccc(Cl)cc1F [Example 254, N-((1R)-1-(4-chloro-2-fluorophenyl)ethyl)-1-(((2S)-4-((3-cyano-1-azetidinyl)sulfonyl)-2-piperazinyl)carbonyl)-D-prolinamide] | 0.6139 µM
C[C@@H](NC(=O)[C@H]1CCCN1C(=O)[C@H]1CCCN(S(=O)(=O)N2CC(C#N)C2)C1)c1ccc(Cl)c(F)c1 [Example 69, N-((1R)-1-(4-chloro-3-fluorophenyl)ethyl)-1-(((3S)-1-((3-cyano-1-azetidinyl)sulfonyl)-3-piperidinyl)carbonyl)-D-prolinamide] | 0.08835 µM
N#CC1CN(S(=O)(=O)c2cccc(C(=O)N3C[C@@H](O)C[C@@H]3C(=O)NCc3ccc(C(F)(F)F)cc3)c2)C1 [Example 251, (4S)-1-((3-((3-cyano-1-azetidinyl)sulfonyl)phenyl)carbonyl)-4-hydroxy-N-(4-(trifluoromethyl)benzyl)-D-prolinamide] | 0.6055 µM
C[C@@H](NC(=O)[C@H]1CCCN1C(=O)c1cccc(S(=O)(=O)N2CC(C#N)C2)c1)c1ccc(C(F)F)cc1 [Example 120, 1-((3-((3-cyano-1-azetidinyl)sulfonyl)phenyl)carbonyl)-N-((1R)-1-(4-(difluoromethyl)phenyl)ethyl)-D-prolinamide] | 0.1826 µM
Cc1ccc(CNC(=O)[C@H]2CCCN2C(=O)[C@H]2CCCN(S(=O)(=O)N3CC(C#N)C3)C2)c(Cl)c1 [Example 191, N-(2-chloro-4-methylbenzyl)-1-(((3S)-1-((3-cyano-1-azetidinyl)sulfonyl)-3-piperidinyl)carbonyl)-D-prolinamide] | 0.3593 µM

Next, values leading:

AC1.4 | SMILES
0.8725 µM | C[C@@H](NC(=O)[C@H]1CCCN1C(=O)[C@H]1CCCN(S(=O)(=O)N2CC(S(C)(=O)=O)C2)C1)c1ccc(F)cc1F [Example 321, N-((1R)-1-(2,4-difluorophenyl)ethyl)-1-(((3S)-1-((3-(methylsulfonyl)-1-azetidinyl)sulfonyl)-3-piperidinyl)carbonyl)-D-prolinamide]
1.7265 µM | N#CC1CN(S(=O)(=O)N2CCC[C@H](C(=O)N3CCC[C@@H]3C(=O)N[C@@H](CO)c3ccc(Cl)c(F)c3)C2)C1 [Example 441, N-((1R)-1-(4-chloro-3-fluorophenyl)-2-hydroxyethyl)-1-(((3S)-1-((3-cyano-1-azetidinyl)sulfonyl)-3-piperidinyl)carbonyl)-D-prolinamide]
1.515 µM | CC(C)c1cccc(C(=O)N2CCC[C@@H]2C(=O)N[C@@H](c2ccc(C(F)(F)F)cc2F)C2CC2)c1 [Example 414, N-((R)-cyclopropyl(2-fluoro-4-(trifluoromethyl)phenyl)methyl)-1-(3-(2-propanyl)benzoyl)-D-prolinamide]
5.7465 µM | CS(=O)(=O)c1cccc(C(=O)N2C[C@@H](F)C[C@@H]2C(=O)N[C@@H](c2ccc(C(F)(F)F)cc2F)C2(F)COC2)c1 [Example 706, (4S)-4-fluoro-N-((S)-(3-fluoro-3-oxetanyl)(2-fluoro-4-(trifluoromethyl)phenyl)methyl)-1-(3-(methylsulfonyl)benzoyl)-D-prolinamide]
5.887 µM | O=C(NC1CN(S(=O)(=O)N2CCC[C@H](C(=O)N3CCC[C@@H]3C(=O)NCc3ccc(C(F)(F)F)cc3)C2)C1)C1CC1 [Example 710, 1-(((3S)-1-((3-((cyclopropylcarbonyl)amino)-1-azetidinyl)sulfonyl)-3-piperidinyl)carbonyl)-N-(4-(trifluoromethyl)benzyl)-D-prolinamide]
7.232 µM | CN(C)S(=O)(=O)N1CCC[C@H](C(=O)N2CCC[C@@H]2C(=O)NCc2ccc(C(F)(F)F)cc2)C1 [Example 744, 1-(((3S)-1-(dimethylsulfamoyl)-3-piperidinyl)carbonyl)-N-(4-(trifluoromethyl)benzyl)-D-prolinamide]
1.9235 µM | C[C@H](NC(=O)[C@H]1CCCN1C(=O)[C@H]1CCCN(S(=O)(=O)N2CC(C#N)C2)C1)c1ccc(Cl)c(F)c1 [Example 462, N-((1S)-1-(4-chloro-3-fluorophenyl)ethyl)-1-(((3S)-1-((3-cyano-1-azetidinyl)sulfonyl)-3-piperidinyl)carbonyl)-D-prolinamide]
5.354 µM | CS(=O)(=O)c1cc(C(=O)N2CCC[C@@H]2C(=O)N[C@@H](c2ccc(C(F)(F)F)cc2F)C2CC2)ccc1F [Example 690, N-((R)-cyclopropyl(2-fluoro-4-(trifluoromethyl)phenyl)methyl)-1-(4-fluoro-3-(methylsulfonyl)benzoyl)-D-prolinamide]
2.813 µM | CS(=O)(=O)c1cccc(C(=O)N2C(=O)OC[C@@H]2C(=O)N[C@@H](c2ccc(C(F)(F)F)cc2F)C2CC2)c1 [Example 543, (4R)-N-((R)-cyclopropyl(2-fluoro-4-(trifluoromethyl)phenyl)methyl)-3-(3-(methylsulfonyl)benzoyl)-2-oxo-1,3-oxazolidine-4-carboxamide]
